Test results: US10391070B2, “Compositions and methods for treating neurological diseases or injury” (MUSC FOUNDATION FOR RESEARCH DEVELOPMENT, priority 2012, dated 2019)

Experiments:
[1] = tested on: HO-1; experiment: qRT-PCR of antioxidant response gene HO-1; type: cell-based, mouse; details: HT22, 10 mM glutamate 16 hrs, relative to glutamate only
Protocol: HT22 cells were seeded onto cell culture treated 6-well plates at 3.0×10^5 cells per well in 2 mL of medium and maintained at 37° C. in 5% CO2 overnight prior to the initiation of experimental treatments. Cells were subsequently treated with 1 mL of medium containing glutamate (monosodium glutamate, Sigma-Aldritch, 1 M stock concentration in media, to achieve a final concentration of 10 mM) plus inhibitors (stock in DMSO) and maintained at 37° C. in 5% CO2. After 16 hrs, the media was collected and the cells harvested by trypsanization. After centrifugation, pelleted cells were washed with cold Hanks' Balanced Salt Solution (HBSS Ca^2+/Mg^2+ Free; Invitrogen; KCl 5.33 mM, KH2PO4 0.441 mM, NaHCO3 4.17 mM, NaCl 137.93 mM, Na2HPO4 0.338 mM, D-Glucose 5.56 mM), qRT-PCR was used to detect HO-1, NQO-1, and PGAM5 mRNAs in the HT22 cells. […] Therefore β2-microglobulin was used as a reference gene (Barrionuevo and Burggren, 1999). HT22 cells were cultured as described for 16 hrs. Total RNAs were extracted using the RNEasy kit (Qiagen), and transcripts of interest were amplified by PCR using the 1-step Syber Green qRT-PCR kit (Quanta) and the following specific primers (Harvard PrimerBank; Integrated DNA Technologies): HO-1, 5′-[…]-3′ (SEQ ID NO:1) and 5′-[…]-3′ (SEQ ID NO:2); PGAM5, 5′-[…]-3′ (SEQ ID NO:3) and 5′-[…]-3′ (SEQ ID NO:4); NQO-1, 5′-[…]-3′ (SEQ ID NO:5) and 5′-[…]-3′ (SEQ ID NO:6); and β2-microglobulin, 5′-[…]-3′ (SEQ ID NO:7) and 5′-[…]-3′ (SEQ ID NO:8). Linearity of the primers was verified before use, and fold changes were calculated as previously described using the Livak method (Barrionuevo and Burggren, 1999).

[2] = Antioxidant activity assay (DPPH free radical scavenging); details: 20 μM, 100 μM DPPH in methanol
Protocol: Antioxidant activity of various reagents was assayed as previously described by monitoring the disappearance of the optical absorbance of the stable-free radical DPPH on reaction with test compounds (Blois, 1958). The rate of the reaction represents the antioxidant potency of test agents. The known free radical scavenger Trolox and ascorbic acid were used as positive controls. Briefly, 10 μL of test reagents at final concentrations of 20 μM were added to 200 μL of 100 μM DPPH in methanol. Optical absorbance of DPPH at 517 nm was immediately monitored for 10 min.

[3] = tested on: Drp1; experiment: Western blot, phosphorylation of Drp1 (Ser637); type: cell-based, mouse; details: HT22, 10 mM glutamate 16 hrs
Protocol: HT-22 cells were cultured and treated as described above for the qRT-PCR experiments. After 16 hrs, the media was collected and the cells harvested by trypsanization. After centrifugation, pelleted cells were washed with cold HBSS Ca^2+/Mg^2+ Free, followed by lysis with a low salt lysis buffer (50 mM Tris-HCl, pH 7.4, 150 mM NaCl, 10% glycerol, 0.5 Triton X-100, 1× protease and phosphatase inhibitor cocktail) for 30 min, followed by a 15-s sonication pulse at 30 W. For Western blot analysis, the cell lysates were denatured with LDS loading buffer (Invitrogen) and run on Nupage 4-12% Tris-glysine gradient gels (Invitrogen) after centrifugation. Phosphorylated Drp1 (Ser637) (Cell Signaling) and total Drp1 (C5) (Santa Cruz), PGAM5 (K16) (Santa Cruz Biotechnology), Actin (Sigma-Aldritch) and alpha-Tubulin (Santa Cruz Biotechnology) were assessed with primary antibody, followed by rabbit, mouse, or goat IgG-HRP secondary antibody. The blot was developed using Pierce Thermo Dura-ECL reagent (Thermo-Fisher) and visualized using an ImageQuant LAS 4000 (GE). Digital images of membranes were quantified by computer-assisted densitometry using Image J 1.42q (National Institutes of Health, MD).

[4] = tested on: PTZ-induced seizures; experiment: PTZ-induced seizure (swim activity) model in zebrafish larvae; type: in vivo, zebrafish (Danio rerio)

Compound: O=C1C=C(NCc2ccccc2)C(=O)c2ccccc21 [Compound 2j, 2-(benzylamino)naphthalene-1,4-dione]
- HO-1 gene expression [1]: significantly decreased HO-1 expression
- free radical scavenging capacity (DPPH absorbance) [2]: did not show direct antioxidant capacity
- phosphorylation of Drp1 at Ser 637 ([3]; 250 and 125 nM): the phosphorylation state is maintained

Compound: O=C1C=C(NCc2cccc(Cl)c2)C(=O)c2ccccc21 [Compound 2q, 2-((3-chlorobenzyl)amino)naphthalene-1,4-dione]
- fold reduction of PTZ-induced swim activity (distance traveled) ([4]; 7 dpf zebrafish, 1 h pretreatment, 15 mM PTZ, 2j 10 μM, 2h 20 μM, 2q 20 μM, 3n 8 μM): more than two fold
- HO-1 gene expression [1]: significantly decreased HO-1 expression
- free radical scavenging capacity (DPPH absorbance) [2]: did not show direct antioxidant capacity
- phosphorylation of Drp1 at Ser 637 ([3]; 250 and 125 nM): the phosphorylation state is maintained

Compound: CC1=CC(=O)c2ccccc2C1=O [VK3, menadione, reference compound]
- fold reduction of distance traveled from PTZ levels ([4]; 7 dpf zebrafish, 1.5 μM): 0.5 fold
- fold reduction of PTZ-induced swim behavior ([4]; 7 dpf zebrafish, 3 μM): 2 fold
- fold reduction of distance traveled after PTZ treatment ([4]; 7 dpf zebrafish, 6 μM, 1 h pretreatment, 15 mM PTZ): more than 4 fold
- concentrations reducing seizure activity ([4]; PTZ-treated 6 dpf zebrafish, dose dependent): 1.5 to 6 µM

Compound: menaquinones [VK2, reference compound]
- reduction of seizures ([4]; PTZ-treated 6 dpf zebrafish, up to 100 mM): neither were found to reduce seizures
- HO-1 gene expression [1]: significantly decreased HO-1 expression
- free radical scavenging capacity (DPPH absorbance) [2]: did not show direct antioxidant capacity
- phosphorylation of Drp1 at Ser 637 ([3]; 250 nM): less effective
- phosphorylation of Drp1 at Ser 637 ([3]; 500 nM): the phosphorylation state is maintained
